These results are taken from patent US5169855A, “Piperidine ether derivatives as psychotropic drugs or plant fungicides” (priority 1990, dated 1992).

Experiment [1] has as its system isolation-induced aggressive behavior. The experiment is described as follows: Isolation-Induced Aggression in Mice. Format: in vivo, mouse (male Balb/c). To be noted: po. As for the experimental part:
Male Balb/c mice (Charles River) were used. […] Isolated mice failing to consistently attack an intruder were eliminated from the colony.
Drug testing was carried out by treating the isolated mice with test drugs or standards. Fifteen min after dosing with drugs by the oral route (po), one isolated mouse was removed from its home cage and placed in the home cage of another isolate. Scoring was a yes or no response for each pair. A maximum of 3 min was allowed for an attack and the pair was separated immediately upon an attack. Selection of home cage and intruder mice was randomized for each test. Mice were treated and tested twice a week with at least a 2 day washout period between treatments.

Experiment [2] deals with (+)-N-allylnormetazocine-induced turning. The experiment in a line: (+)-N-Allylnormetazocine-Induced Turning Behavior in Rats. Format: in vivo, rat (male Sprague-Dawley). To be noted: p.o.
Experiment [3] has as its system sigma receptor. To be noted: Tam, Eur. Pharmacol. 109: 33-41 (1985); cited from earlier work.
In experiment [4] the test system is Erysiphe graminis f. sp. tritici. The experiment is described as follows: Test A: wheat powdery mildew disease control (wheat seedlings). To be noted: sprayed at 1000 to 2 ppm (rate not given per compound). Format: in vivo. As for the experimental part:
The test compounds were dissolved in acetone in an amount equal to 6% of the final volume and then suspended at a concentration of from 1000 to 2 ppm in purified water containing 250 ppm of the surfactant TREM 014 (polyhydric alcohol esters). This suspension was sprayed to the point of run-off on wheat seedlings. The following day plants were inoculated with a spore dust of Erysiphe graminis f. sp. tritici, the causal agent of wheat powdery mildew, and incubated in a growth chamber at 20° C. for 7 days, when disease ratings were made.

The subject of experiment [5] is Puccinia recondita. The experiment in a line: Test B: wheat leaf rust disease control (wheat seedlings). It counts as in vivo. To be noted: sprayed at 1000 to 2 ppm (rate not given per compound). As for the experimental part:
The test compounds were dissolved in acetone in an amount equal to 6% of the final volume and then suspended at a concentration of from 1000 to 2 ppm in purified water containing 250 ppm of the surfactant TREM 014 (polyhydric alcohol esters). This suspension was sprayed to the point of run-off on wheat seedlings.

For experiment [6], the system named is Venturia inaequalis. The experiment is described as follows: Test C: apple scab disease control (apple seedlings). It counts as in vivo. To be noted: sprayed at 1000 to 2 ppm (rate not given per compound). As for the experimental part:
The test compounds were dissolved in acetone in an amount equal to 6% of the final volume and then suspended at a concentration of from 1000 to 2 ppm in purified water containing 250 ppm of the surfactant TREM 014 (polyhydric alcohol esters). This suspension was sprayed to the point of run-off on apple seedlings. The following day plants were inoculated with a spore suspension of Venturia inaequalis, the causal agent of apple scab, and incubated in a saturated humidity chamber at 20° C. for 24 hours and then in a growth chamber at 22° C. for 11 days, when disease ratings were made.

Experiment [7] concerns Cercosporidum personatum. The experiment is described as follows: Test D: peanut late leaf spot disease control (peanut seedlings). To be noted: sprayed at 1000 to 2 ppm (rate not given per compound). Format: in vivo. As for the experimental part: The test compounds were dissolved in acetone in an amount equal to 6% of the final volume and then suspended at a concentration of from 1000 to 2 ppm in purified water containing 250 ppm of the surfactant TREM 014 (polyhydric alcohol esters). This suspension was sprayed to the point of run-off on peanut seedlings. The following day plants were inoculated with a spore suspension of Cercosporidum personatum, the causal agent of peanut late leaf spot, and incubated in a saturated humidity chamber at 22° C. for 24 hours and then in a high humidity chamber at 27° C. for 7 days, and then in a growth chamber at 29° C. for 7 days, when disease ratings were made.

In experiment [8] the test system is Botrytis cinerea. The experiment is described as follows: Test E: cucumber grey mold disease control (cucumber seedlings). It counts as in vivo. Particulars: sprayed at 1000 to 2 ppm (rate not given per compound). As for the experimental part: The test compounds were dissolved in acetone in an amount equal to 6% of the final volume and then suspended at a concentration of from 1000 to 2 ppm in purified water containing 250 ppm of the surfactant TREM 014 (polyhydric alcohol esters). This suspension was sprayed to the point of run-off on cucumber seedlings. The following day plants were inoculated with a spore suspension of Botrytis cinerea, the causal agent of cucumber grey mold, and incubated in a saturated humidity chamber at 20° C. for 48 hours and then in a greenhouse for 5 days, when disease ratings were made.

Experiment [9] relates to Phytophthora infestans. It counts as in vivo. To be noted: tomato late blight; sprayed at 1000 to 2 ppm (rate not given per compound).
Experiment [10] deals with Plasmopara viticola. The experiment is described as follows: Test G: grape downy mildew disease control (grape seedlings). Format: in vivo. To be noted: sprayed at 1000 to 2 ppm (rate not given per compound). As for the experimental part:
The test compounds were dissolved in acetone in an amount equal to 6% of the final volume and then suspended at a concentration of from 1000 to 2 ppm in purified water containing 250 ppm of the surfactant TREM 014 (polyhydric alcohol esters). This suspension was sprayed to the point of run-off on grape seedlings. The following day plants were inoculated with a spore suspension of Plasmopara viticola, the causal agent of grape downy mildew, and incubated in a dew chamber at 20° C. for 24 hours and then in a growth chamber a 20° C. for 7 days, when disease ratings were made.

In experiment [11] the test system is Pyricularia oryzae. Format: in vivo. Particulars: rice blast; sprayed at 1000 to 2 ppm (rate not given per compound).
The subject of experiment [12] is Rhizoctonia solani. The experiment is described as follows: Test I: rice sheath blight disease control (rice seedlings). Format: in vivo. Particulars: sprayed at 1000 to 2 ppm (rate not given per compound). As for the experimental part: The test compounds were dissolved in acetone in an amount equal to 6% of the final volume and then suspended at a concentration of from 1000 to 2 ppm in purified water containing 250 ppm of the surfactant TREM 014 (polyhydric alcohol esters). This suspension was sprayed to the point of run-off on rice seedlings. The following day plants were inoculated with a mycelial suspension of Rhizoctonia solani, the causal agent of rice sheath blight, and incubated in a saturated humidity chamber at 27° C. for 48 hours and then in a growth chamber at 29° C. for 4 days, when disease ratings were made.

Regarding `O=C(CCCN1CCC(O)(c2ccc(Cl)cc2)CC1)c1ccc(F)cc1` [Haloperidol, reference compound], the “inhibiting the isolation-induced aggressive behavior (in words)” value in experiment [1] was “potent activities”. In addition, the “antagonism of N-allylnormetazocine-induced rotation (in words)” value in experiment [2] is given as “potently antagonized”.

`Fc1ccc(OCC2CCN(Cc3ccccc3)CC2)cc1` [Example 68, 1-Benzyl-4-(4'-Fluorophenoxymethyl)piperidine]: in experiment [1], the “inhibiting the isolation-induced aggressive behavior (in words)” value was “potent activities”. Moreover, the “antagonism of N-allylnormetazocine-induced rotation (in words)” value in [2] is reported as “potently antagonized”.

Regarding `c1ccc(C2(N3CCCCC3)CCCCC2)cc1` [PCP], the “affinity for the sigma receptor (in words)” value in experiment [3] is “significant affinity”.

For the compound `Fc1ccc(COCC2CCN(Cc3ccc(Cl)cc3)CC2)cc1` [Example 188], in experiment [4], the “disease control rating, Test A” value is 100%. Also, the “disease control rating, Test B” value in [5] is 72%. Besides, the “disease control rating, Test C” value in experiment [6] is 93%. Also, in [7], the “disease control rating, Test D” value is given as 82%. In addition, the “disease control rating, Test E” value in experiment [8] is 18%. In addition, the “disease control rating, Test F” value in [9] is listed as 8%. The “disease control rating, Test G” value in experiment [10] was determined as 89%. In addition, the “disease control rating, Test H” value in experiment [11] was found to be 0%. Also, the “disease control rating, Test I” value in [12] came out at 0%.
